Source: US7605272B2, “IGF-1R inhibitor” (Kyowa Hakko Kirin Co., Ltd., priority 2005, dated 2009)
Counter-ions that a name gives are not always drawn. Like-named read-outs stand apart in the source and are kept apart here.

Key:
NCI-H929 = assay: Cytostatic activity on human multiple myeloma cell line NCI-H929 (WST-1); assay type: cell-based; details: Homo sapiens, NCI-H929, 72 h; for inhibition at 10 µM: 10 μmol/L, read-out: cytostatic rate (%) H929 (10 μmol/L); for inhibition at 1 µM: read-out: cytostatic rate (%) H929 (1 μmol/L)
Outline: (§1)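 Cells pre-cultured 24 h at 37 °C, 5% CO2, then exposed 72 h to compound at final 1 or 10 μmol/L (0.1% DMSO). WST-1 added for 2 h, absorbance at 450 nm (ref 690 nm). Cytostatic rate = 100 minus relative growth, with DMSO control as 100% and blank as 0%.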

KMS-11 = assay: Cytostatic activity on human multiple myeloma cell line KMS-11 (WST-1); assay type: cell-based; details: Homo sapiens, KMS-11, 72 h; for inhibition at 10 µM: 10 μmol/L, read-out: cytostatic rate (%) KMS-11 (10 μmol/L); for inhibition at 1 µM: read-out: cytostatic rate (%) KMS-11 (1 μmol/L)
Outline: as §1

IGF-1R = biological target: T1, IGF-1R (Homo sapiens, UniProt P08069); assay: IGF-1R inhibitory activity (kinase reaction, time-resolved fluoroimmunoassay); assay type: biochemical; details: test compound 10 μmol/L
T1 construct: purchased Upstate Co. 14-465
T1 sequence (P08069 959-1367 limits assumed): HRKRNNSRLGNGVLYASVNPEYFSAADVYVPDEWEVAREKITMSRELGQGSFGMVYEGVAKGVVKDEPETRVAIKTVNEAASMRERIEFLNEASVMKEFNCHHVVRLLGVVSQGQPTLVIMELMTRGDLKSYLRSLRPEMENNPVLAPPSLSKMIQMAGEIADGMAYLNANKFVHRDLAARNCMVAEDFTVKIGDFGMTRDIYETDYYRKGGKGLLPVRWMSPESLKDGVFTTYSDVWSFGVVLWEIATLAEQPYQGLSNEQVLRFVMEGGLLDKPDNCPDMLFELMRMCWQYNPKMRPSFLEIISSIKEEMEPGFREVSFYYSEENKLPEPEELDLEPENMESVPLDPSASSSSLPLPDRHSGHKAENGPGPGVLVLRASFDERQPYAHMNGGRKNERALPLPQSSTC
Outline: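 Compounds were tested at a single 10 μmol/L concentration. Each was incubated with recombinant IGF-1R (200 μg/L), 10 mmol/L ATP, MgCl2/MnCl2 and Na3VO4 (pH 7.5) on immobilized poly(Glu-Tyr) peptide for 30 min at 24° C. Eu-anti-phosphotyrosine time-resolved fluorescence (340/615 nm) gave relative activity against no-compound and no-enzyme wells, reported as % inhibition.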

[1] = IGF-1R active recombinant enzyme
[2] = NCI-H929 cells, test compound 1 μmol/L, WST-1
[3] = KMS-11 cells, test compound 1 μmol/L, WST-1

| Structure (SMILES) | inhibition at 10 µM (NCI-H929; 72 hours) [%] | inhibition at 10 µM (KMS-11; 72 hours) [%] | inhibition at 10 µM (IGF-1R; [1]) [%] | inhibition at 1 µM (NCI-H929; 1 μmol/L, 72 hours) [%] | inhibition at 1 µM (KMS-11; 1 μmol/L, 72 hours) [%] | inhibition at 1 µM (NCI-H929; [2]) [%] | inhibition at 1 µM (KMS-11; [3]) [%] | inhibition at 10 µM (IGF-1R) [%] |
| --- | --- | --- | --- | --- | --- | --- | --- | --- |
| Cc1cc(C(=O)Nc2ccccc2/C=C/c2n[nH]c3ccccc23)ccc1N [Compound 158, (E)-4-amino-N-{2-[2-(1H-indazol-3-yl)vinyl]phenyl}-3-methylbenzamide] | 113 | 108 | 99.5 | – | – | – | – | – |
| O=C(Nc1ccccc1/C=C/c1n[nH]c2ccccc12)c1ccc(Br)s1 [Compound 34, (E)-5-bromo-N-{2-[2-(1H-indazol-3-yl)vinyl]phenyl}thiophene-2-carboxamide] | 113 | 116 | 99.2 | – | – | – | – | – |
| O=C(Nc1cccnc1)c1ccccc1/C=C/c1n[nH]c2ccccc12 [Compound 142, (E)-2-[2-(1H-indazol-3-yl)vinyl]-N-(pyridin-3-yl)benzamide] | 104 | 84.9 | 92.8 | – | – | – | – | – |
| NC(=S)Nc1ccccc1/C=C/c1n[nH]c2ccccc12 [Compound 161, (E)-N-{2-[2-(1H-indazol-3-yl)vinyl]phenyl}thiourea] | 113 | 92.8 | 95.9 | – | – | – | – | – |
| Cc1ccsc1C(=O)Nc1cc(C(=O)NC2CCNCC2)ccc1/C=C/c1n[nH]c2ccccc12 [Compound 240, (E)-N-{2-[2-(1H-indazol-3-yl)vinyl]-5-(piperidin-4-ylcarbamoyl)phenyl}-3-methylthiophene-2-carboxamide hydrochloride] | – | – | 103 | 105 | 67 | – | – | – |
| O=C(Nc1ccccc1/C=C/c1n[nH]c2ccccc12)c1ccc[nH]1 [Compound 42, (E)-N-{2-[2-(1H-indazol-3-yl)vinyl]phenyl}-1H-pyrrole-2-carboxamide] | 126 | 109 | 98.9 | – | – | – | – | – |
| Cc1ccsc1C(=O)Nc1cc(CNC2CCNCC2)ccc1/C=C/c1n[nH]c2ccccc12 [Compound 264, (E)-N-{2-[2-(1H-indazol-3-yl)vinyl]-5-(piperidin-4-ylaminomethyl)phenyl}-3-methylthiophene-2-carboxamide] | – | – | 102 | 111 | 58.5 | – | – | – |
| Cc1ccsc1C(=O)Nc1cc(CN2CC[C@@H](O)C2)ccc1/C=C/c1n[nH]c2ccccc12 [Compound 330, (R)-(E)-N-{5-(3-hydroxypyrrolidin-1-ylmethyl)-2-[2-(1H-indazol-3-yl)vinyl]phenyl}-3-methylthiophene-2-carboxamide] | – | – | 102 | – | – | 131 | 112 | – |
| Cc1ccsc1C(=O)Nc1cc(C(=O)N2CC[C@@H](O)C2)ccc1/C=C/c1n[nH]c2ccccc12 [Compound 220, (E)-(R)—N-{2-[2-(1H-indazol-3-yl)vinyl]-5-(3-hydroxypyrrolidin-1-ylcarbonyl)phenyl}-3-methylthiophene-2-carboxamide hydrochloride] | – | – | 99.3 | 110 | 97.9 | – | – | – |
| Nc1ccn(C(=O)c2ccccc2/C=C/c2n[nH]c3ccccc23)n1 [Compound 48, (E)-3-amino-1-{2-[2-(1H-indazol-3-yl)vinyl]benzoyl}pyrazole] | 111 | 90.1 | 99.3 | – | – | – | – | – |
| Cn1c(C(=O)Nc2ccccc2/C=C/c2n[nH]c3ccccc23)cc2ccccc21 [Compound 55, (E)-N-{2-[2-(1H-indazol-3-yl)vinyl]phenyl}-1-methyl-1H-indole-2-carboxamide] | 115 | 132 | 98.9 | – | – | – | – | – |
| COCC(=O)N1CCN(Cc2ccc(/C=C/c3n[nH]c4ccccc34)c(NC(=O)c3sccc3C)c2)CC1 [Compound 244, (E)-N-{2-[2-(1H-indazol-3-yl)vinyl]-5-[4-(2-methoxyacetyl)piperazin-1-ylmethyl]phenyl}-3-methylthiophene-2-carboxamide] | – | – | 102 | 127 | 124 | – | – | – |
| CCN(CC)CCOc1ccc(NC(=O)c2sccc2C)c(/C=C/c2n[nH]c3ccccc23)c1 [Compound 237, (E)-N-{2-[2-(1H-indazol-3-yl)vinyl]-4-(2-diethylaminoethoxy)phenyl}-3-methylthiophene-2-carboxamide] | – | – | 100 | 120 | 144 | – | – | – |
| Cc1ccsc1C(=O)Nc1cc(CN2CCN(C[C@H](O)CO)CC2)ccc1/C=C/c1n[nH]c2ccccc12 [Compound 302, (E)-(S)—N-{5-[4-(2,3-dihydroxypropyl)piperazin-1-ylmethyl]-2-[2-(1H-indazol-3-yl)vinyl]phenyl}-3-methylthiophene-2-carboxamide] | – | – | 101 | 115 | 99.4 | – | – | – |
| COCCN(CCN1CCOCC1)c1ccc(NC(=O)c2sccc2C)c(/C=C/c2n[nH]c3ccccc23)c1 [Compound 238, (E)-N-{2-[2-(1H-indazol-3-yl)vinyl]-4-[N-(2-methoxyethyl)-2-(morpholin-4-yl)ethylamino]phenyl}-3-methylthiophene-2-carboxamide] | – | – | 97.1 | 126 | 132 | – | – | – |
| O=C(Nc1ccccc1/C=C/c1n[nH]c2ccccc12)c1ccccc1F [Compound 8, (E)-2-fluoro-N-{2-[2-(1H-indazol-3-yl)vinyl]phenyl}benzamide] | 118 | 126 | 99.5 | – | – | – | – | – |
| Cc1ccsc1C(=O)Nc1cc(C(=O)N2CCC(N(C)C)C2)ccc1/C=C/c1n[nH]c2ccccc12 (stereo not drawn) [Compound 295, (E)-N-{5-[3-(dimethylamino)pyrrolidin-1-ylcarbonyl]-2-[2-(1H-indazol-3-yl)vinyl]phenyl}-3-methylthiophene-2-carboxamide] | – | – | 97.2 | 118 | 118 | – | – | – |
| COc1c(OCCCN2CCC[C@H]2CO)ccc(/C=C/c2n[nH]c3ccccc23)c1NC(=O)c1sccc1C [Compound 340, (E)-(s)-N-{3-[3-(2-hydroxymethylpyrrolidin-1-yl)propoxy]-6-[2-(1H-indazol-3-yl)vinyl]-2-methoxyphenyl}-3-methylthiophene-2-carboxamide] | – | – | 103 | – | – | 121 | 118 | – |
| O=C(Nc1ccccc1/C=C/c1n[nH]c2ccccc12)C1CCCO1 (stereo not drawn) [Compound 32, (E)-N-{2-[2-(1H-indazol-3-yl)vinyl]phenyl}tetrahydrofuran-2-carboxamide] | 113 | 126 | 98.6 | – | – | – | – | – |
| COc1cccc(/C=C/c2n[nH]c3ccccc23)c1NC(=O)c1sccc1C [Compound 94, (E)-N-{2-[2-(1H-indazol-3-yl)vinyl]-6-methoxyphenyl}-3-methylthiophene-2-carboxamide] | 125 | 143 | – | – | – | – | – | 95.4 |
| COc1ccc(/C=C/c2n[nH]c3ccccc23)c(NC(=O)c2sccc2C)c1OC [Compound 261, (E)-N-{6-[2-(1H-indazol-3-yl)vinyl]-2,3-dimethoxyphenyl}-3-methylthiophene-2-carboxamide] | – | – | 101 | 115 | 121 | – | – | – |
